Each structure is given as a SMILES string.

In this experiment the target is T1, thrombin (Bos taurus, UniProt P00735).
T1 construct: purchased Sigma T-3399
The experiment is described as follows: biological assay for thrombin inhibitory activity (fluorogenic substrate). It counts as biochemical. To be noted: for inhibition at 50 µM: test probe concentration 50 μM; for inhibition at 100 µM: test probe concentration 100 μM. How it is done:
The biological assay for thrombin inhibitory activity is detailed below. To Costar® 96-well black fluorescence plate wells is added 70 microliters of assay buffer, followed by 10 microliters of 1 millimolar substrate solution. Test probe (10 microliters in 30% DMSO) is then added to wells according to the desired concentrations for the assay. The mixture is incubated at 37° C. for 5 minutes, followed by addition of 10 microliters of thrombin (100 micrograms/mL in assay buffer), to make a final assay volume of 100 microliters. The plate is mixed gently and incubated 15 minutes at 37° C. Stop buffer (100 microliters) is added, and the plate is read by detecting fluorescence intensity (Excitation at 360 nm, Emission at 460 nm). Percent inhibition of test compound is calculated by comparison with control wells. “Assay buffer” is composed of 100 mM KH2PO4, 100 mM Na2HPO4, 1 mM EDTA, 0.01% BRIJ-35, and 1 mM dithiothreitol (added fresh on the day assay is preformed). “Stop buffer” is composed of 100 mM Na—O(O)CCH2Cl and 30 mM sodium acetate which is brought to pH 2.5 with glacial acetic acid. Thrombin was purchased from Sigma (cat #T-3399). Thrombin substrate III fluorogenic was purchased from ICN (cat #195915). Sodium acetate, dithiothreitol, and Brij-35 were purchased from Sigma. Sodium monochloroacetate was purchased from Lancaster 223-498-3. Glacial acetic acid was purchased from Alfa Aesar (cat # 33252). Thrombin was stored at −20° C. Thrombin substrate fluorogenic was stored at −20° C. (5 mM in DMSO).

By inhibition is commonly meant the change of the read-out against control, counted positive when it falls. Turning to `CC(NC(=O)C(NC(=O)c1n[nH]c2ccccc12)C1CCNCC1)c1ccccc1` (stereo not drawn) [Example B3], the inhibition at 50 µM was in the range of 10 to 39% and the inhibition at 100 µM fell in the range of 40 to 74%.

`CCCCN(CCCC)CCCNC(=O)c1cc(Cl)ccc1NC(=O)c1n[nH]c2ccccc12` [Example B2] gave an inhibition at 50 µM of 10 to 39% and an inhibition at 100 µM of 40 to 74%.

Regarding `COc1ccc(CNC(=O)c2cc(Cl)ccc2NC(=O)c2n[nH]c3ccccc23)cc1OC` [Example B1], the inhibition at 50 µM fell in the range of 10 to 39% and the inhibition at 100 µM lay in the range of 40 to 74%.
